Literature values in US20090221462A1, “Fragrance compositions” (priority 2005, published 2009).

Settings: at 25° C.

pKa (cis) (cis isomer) | Structure (SMILES) | pKa
3.89 | O=C(O)C=Cc1ccccc1 [cinnamic acid] | 
 | O=C(O)Cc1ccccc1 [phenylacetic acid] | 4.28
